Source: the NIST ThermoML archive (doi:10.1016/j.jct.2014.12.004)
Numbers after ± are expanded uncertainties.

Settings: Crystal; DTA

Normal melting temperature	SMILES
259.1 ± 0.4 °C	O=c1c2ccccc2nc2n1CCc1c-2[nH]c2ccccc12 [Rutecarpine]
275.1 ± 0.4 °C	CN1c2ccccc2C(=O)N2CCc3c([nH]c4ccccc34)[C@H]21 [evodiamine]
